According to ChEMBL document CHEMBL3431459, “Roche carnitine palmitoyltransferase modulator screening data (supplementary data associated with the publication CHEMBL2216752)”:
Converted amounts (≈) assume the structure as drawn.

Tests used:
[1] = biological target: T1, Carnitine O-palmitoyltransferase 1, muscle isoform (Homo sapiens, UniProt Q92523); test: SUPPLEMENTARY: Inhibition of Carnitine palmitoyltransferase 1, muscle isoform; parameters: species or system Muscle tissue
T1 sequence (Q92523 whole entry): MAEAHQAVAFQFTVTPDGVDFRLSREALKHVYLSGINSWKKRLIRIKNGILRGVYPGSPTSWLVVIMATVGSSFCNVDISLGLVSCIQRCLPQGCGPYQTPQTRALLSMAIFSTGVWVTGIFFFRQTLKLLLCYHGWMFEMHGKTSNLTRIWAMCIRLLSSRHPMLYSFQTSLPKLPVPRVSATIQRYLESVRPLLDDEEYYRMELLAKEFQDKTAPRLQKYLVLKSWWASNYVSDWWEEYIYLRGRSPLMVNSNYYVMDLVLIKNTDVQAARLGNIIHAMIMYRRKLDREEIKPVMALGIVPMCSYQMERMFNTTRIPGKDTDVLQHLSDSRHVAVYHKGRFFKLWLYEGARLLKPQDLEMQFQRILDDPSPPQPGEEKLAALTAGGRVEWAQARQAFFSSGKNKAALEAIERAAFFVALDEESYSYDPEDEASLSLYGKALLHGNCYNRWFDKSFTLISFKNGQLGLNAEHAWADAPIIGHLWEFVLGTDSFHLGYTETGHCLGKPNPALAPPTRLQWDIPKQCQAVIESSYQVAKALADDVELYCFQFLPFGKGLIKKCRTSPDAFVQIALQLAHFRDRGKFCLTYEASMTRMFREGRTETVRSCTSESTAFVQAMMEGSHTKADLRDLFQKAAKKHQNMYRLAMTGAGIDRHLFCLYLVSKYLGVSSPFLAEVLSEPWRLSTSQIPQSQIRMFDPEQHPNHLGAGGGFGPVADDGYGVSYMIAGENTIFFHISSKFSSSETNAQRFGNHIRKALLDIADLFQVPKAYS

[2] = biological target: T2, Carnitine O-palmitoyltransferase 2, mitochondrial (Homo sapiens, UniProt P23786); test: (§1) SUPPLEMENTARY: Inhibition of Carnitine palmitoyltransferase 2
T2 sequence (P23786 whole entry): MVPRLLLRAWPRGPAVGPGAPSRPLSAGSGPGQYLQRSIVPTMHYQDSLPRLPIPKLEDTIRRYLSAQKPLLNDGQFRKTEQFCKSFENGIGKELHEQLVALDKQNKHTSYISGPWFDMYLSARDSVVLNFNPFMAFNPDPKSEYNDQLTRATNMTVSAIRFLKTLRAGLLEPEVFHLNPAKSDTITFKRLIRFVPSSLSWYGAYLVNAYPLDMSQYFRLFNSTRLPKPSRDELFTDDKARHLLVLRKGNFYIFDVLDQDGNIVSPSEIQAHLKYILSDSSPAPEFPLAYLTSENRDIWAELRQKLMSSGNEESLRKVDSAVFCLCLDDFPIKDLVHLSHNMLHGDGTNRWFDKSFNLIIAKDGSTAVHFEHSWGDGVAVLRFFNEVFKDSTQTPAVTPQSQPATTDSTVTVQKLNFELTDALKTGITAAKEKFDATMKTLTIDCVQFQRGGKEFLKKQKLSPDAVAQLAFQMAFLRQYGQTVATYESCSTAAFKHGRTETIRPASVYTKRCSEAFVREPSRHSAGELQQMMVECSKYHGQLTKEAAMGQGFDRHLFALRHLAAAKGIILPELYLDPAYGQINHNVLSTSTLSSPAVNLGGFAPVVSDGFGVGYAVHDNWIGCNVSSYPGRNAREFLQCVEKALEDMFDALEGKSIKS

[3] = biological target: T3, Carnitine O-palmitoyltransferase 2, mitochondrial (Rattus norvegicus, UniProt P18886); test: as §1
T3 sequence (P18886 whole entry): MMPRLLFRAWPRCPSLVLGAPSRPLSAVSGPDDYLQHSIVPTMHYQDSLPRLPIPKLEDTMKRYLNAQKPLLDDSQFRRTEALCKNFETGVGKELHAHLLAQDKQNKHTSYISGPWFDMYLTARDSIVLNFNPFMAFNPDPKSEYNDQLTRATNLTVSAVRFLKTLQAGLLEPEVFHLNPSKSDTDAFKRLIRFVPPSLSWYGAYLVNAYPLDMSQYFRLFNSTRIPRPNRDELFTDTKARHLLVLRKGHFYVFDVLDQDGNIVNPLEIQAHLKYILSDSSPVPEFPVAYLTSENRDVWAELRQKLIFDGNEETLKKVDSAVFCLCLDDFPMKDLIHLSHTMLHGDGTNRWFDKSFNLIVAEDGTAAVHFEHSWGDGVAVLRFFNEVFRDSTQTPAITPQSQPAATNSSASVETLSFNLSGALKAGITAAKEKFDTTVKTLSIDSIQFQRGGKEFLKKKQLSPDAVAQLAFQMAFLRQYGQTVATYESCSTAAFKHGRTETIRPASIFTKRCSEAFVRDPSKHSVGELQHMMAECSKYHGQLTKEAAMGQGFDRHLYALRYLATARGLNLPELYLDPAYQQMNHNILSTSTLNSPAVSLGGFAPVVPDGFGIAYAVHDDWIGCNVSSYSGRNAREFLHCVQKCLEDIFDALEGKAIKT

[4] = biological target: T4, Carnitine O-palmitoyltransferase 1, liver isoform (Homo sapiens, UniProt P50416); test: (§2) SUPPLEMENTARY: Inhibition of Carnitine palmitoyltransferase 1, liver isoform
T4 sequence (P50416 whole entry): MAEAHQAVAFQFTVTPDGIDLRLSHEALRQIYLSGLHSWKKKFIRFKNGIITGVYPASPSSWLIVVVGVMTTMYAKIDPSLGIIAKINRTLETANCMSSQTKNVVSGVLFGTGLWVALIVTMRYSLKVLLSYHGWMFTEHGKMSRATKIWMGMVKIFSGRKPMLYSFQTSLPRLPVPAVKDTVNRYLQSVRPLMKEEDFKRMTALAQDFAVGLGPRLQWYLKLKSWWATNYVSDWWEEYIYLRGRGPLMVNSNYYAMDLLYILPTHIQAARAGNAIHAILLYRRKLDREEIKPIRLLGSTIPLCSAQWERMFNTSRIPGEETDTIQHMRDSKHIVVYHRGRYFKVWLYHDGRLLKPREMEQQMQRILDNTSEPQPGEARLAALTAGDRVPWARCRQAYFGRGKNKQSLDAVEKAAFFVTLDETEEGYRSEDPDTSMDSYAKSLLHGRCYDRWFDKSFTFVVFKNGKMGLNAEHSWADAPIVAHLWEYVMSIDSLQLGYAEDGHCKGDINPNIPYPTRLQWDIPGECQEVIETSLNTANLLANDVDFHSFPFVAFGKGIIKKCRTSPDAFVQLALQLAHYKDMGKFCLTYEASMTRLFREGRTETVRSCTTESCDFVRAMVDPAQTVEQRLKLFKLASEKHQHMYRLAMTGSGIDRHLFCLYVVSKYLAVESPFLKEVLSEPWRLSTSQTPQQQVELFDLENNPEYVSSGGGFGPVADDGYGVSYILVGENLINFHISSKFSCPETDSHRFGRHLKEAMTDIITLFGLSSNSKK

[5] = biological target: T5, Carnitine O-palmitoyltransferase 1, liver isoform (Rattus norvegicus, UniProt P32198); test: as §2
T5 sequence (P32198 whole entry): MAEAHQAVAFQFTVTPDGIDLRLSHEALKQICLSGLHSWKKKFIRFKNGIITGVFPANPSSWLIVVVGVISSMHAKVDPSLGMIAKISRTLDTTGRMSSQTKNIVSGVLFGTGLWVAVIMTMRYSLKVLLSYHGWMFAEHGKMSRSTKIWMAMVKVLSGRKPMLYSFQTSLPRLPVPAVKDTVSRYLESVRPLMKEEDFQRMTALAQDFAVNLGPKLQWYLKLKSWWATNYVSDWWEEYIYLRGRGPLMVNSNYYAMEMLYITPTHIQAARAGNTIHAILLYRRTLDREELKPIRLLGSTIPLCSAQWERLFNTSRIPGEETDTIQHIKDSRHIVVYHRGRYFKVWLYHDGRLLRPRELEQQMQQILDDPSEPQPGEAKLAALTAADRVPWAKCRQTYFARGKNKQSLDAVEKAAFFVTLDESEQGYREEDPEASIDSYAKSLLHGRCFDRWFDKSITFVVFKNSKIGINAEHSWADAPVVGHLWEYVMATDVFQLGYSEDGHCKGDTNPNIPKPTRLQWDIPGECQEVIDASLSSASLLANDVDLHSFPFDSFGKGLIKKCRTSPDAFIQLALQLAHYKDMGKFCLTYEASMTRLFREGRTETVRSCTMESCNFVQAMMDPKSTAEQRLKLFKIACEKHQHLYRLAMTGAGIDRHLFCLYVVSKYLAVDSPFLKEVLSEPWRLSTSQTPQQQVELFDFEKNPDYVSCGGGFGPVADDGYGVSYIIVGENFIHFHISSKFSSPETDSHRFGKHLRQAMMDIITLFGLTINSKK

[6] = SUPPLEMENTARY: Lyophilisation Solubility Assay (LYSA); assay type: physicochemical; details: read-out: Kinetic_solubility
[7] = SUPPLEMENTARY: Lipophilicity (log D) Determination by high-throughput shake-flask; assay type: physicochemical; details: octanol/water
[8] = SUPPLEMENTARY: PAMPA permeability assay; assay type: physicochemical; details: read-out: Permeability

Row | SMILES | IC50 [1] [µM] | IC50 [2] [µM] | IC50 [3] [µM] | IC50 [4] [µM] | IC50 [5] [µM] | solubility kinetic [6] [µg/mL] | logD [7] | Papp [8] [×10⁻⁶ cm/s]
1 | COc1ccc(Cl)cc1S(=O)(=O)N1CC(C)c2ccc(C(=O)Nc3ccc(C(=O)O)c(Cl)c3)cc21 (stereo not given) | 1.31 | 0.686 | 1.63 | 0.19 | 0.063 | 528 (≈ 986 µM) | 0.57 | 1.77
2 | CCCN(c1cc(C(=O)Nc2ncc(CC(=O)O)s2)cc2c1OCO2)S(=O)(=O)c1cc(Cl)ccc1OC | 0.703 | > 100 | > 100 | 0.181 | 0.0619 | 108 (≈ 190 µM) | 2.74 | 3.56
3 | CN(C)C(=O)c1ccc(-c2noc(C3C4CC4CN3C(=O)COc3ccccc3)n2)cc1 (stereo not given) | > 100 | 47.1 | 57.1 | 0.165 | 1.09 | 147 (≈ 340 µM) | 2.17 | 4.37
4 | O=C(COc1ccccc1)N1CCCC[C@@H]1c1noc(-c2ccc3ncsc3c2)n1 | > 100 | 18 | > 100 | 0.177 | 0.147 | 2 (≈ 4.76 µM) | 3.31 | 2.4
5 | O=C(O)c1cccc(-c2noc([C@H]3CCCCN3C(=O)COc3ccccc3)n2)c1 | 93.6 | > 100 | > 100 | 0.0935 | 1.49 | > 461 | 0.99 | 1.92
6 | O=C(O)c1ccc(NC(=O)c2ccc3c(c2)N(S(=O)(=O)c2cccc(Cl)c2)CC[S+]3[O-])cc1 (stereo not given) | 52.2 | > 100 | > 100 | 0.13 | 0.0955 | 3 (≈ 5.94 µM) | -0.14 | 0.28
7 | O=C(COc1ccccc1)N1CCCC[C@@H]1c1nc(-c2ccc(=O)[nH]c2)no1 | > 100 | 97.9 | > 100 | 0.325 | 1.19 | 161 (≈ 423 µM) | 1.83 | 4.75
8 | COc1ccc(Cl)cc1S(=O)(=O)Nc1cc(C(=O)Nc2ccccc2)ccc1CCC(=O)O | 46.8 | > 100 | > 100 | 0.0537 | 0.0542 | 440 (≈ 900 µM) | 0.47 | 2.38
9 | CN1CCN(C(=O)COc2ccccc2)[C@@H](c2nc(-c3ccc4c(c3)CC(=O)N4)no2)C1 | > 100 | 16.5 | 35 | 0.137 | 0.305 | 73 (≈ 168 µM) | 1.91 | 3.38
10 | Nc1cc(-c2n[nH]c([C@H]3CCCCN3C(=O)COc3ccccc3)n2)ccn1 | > 100 | > 100 | > 100 | 0.123 | 1.33 | 281 (≈ 743 µM) | 1.95 | 2.77
